Test results taken from patent US6048854A, “2,3-diaminopropionic acid derivative” (Sumitomo Pharmaceuticals Company, Limited, priority 1993, dated 2000).
Where two headings read alike, the source gives them in different places.

Tests used:
[1] = tested on: platelet aggregation; assay: Platelet aggregation inhibitory activity (ADP-induced, human platelet rich plasma); assay type: cell-based
Procedure: The blood was collected from the elbow vein of a normal volunteer with mixing thereof with 1/10 volume of 3.8% sodium citrate, and the blood was centrifuged at 1000 rpm (150 g) for 10 minutes to give the supernatant as platelet rich plasma (PRP). To PRP (200 μl) was added a test compound solution (2 μl), and the mixture was incubated with stirring at 1000 rpm at 37° C. for two minutes, and thereto was added a platelet aggregator, adenosine diphosphate (ADP, 22 μl) at a final concentration of 3 μg/ml. The platelet aggregation activity was determined by nephelometric analysis using a Hematracer (manufactured by Niko Bioscience, Ltd.). The test results of platelet aggregation inhibitory activity are expressed by IC50, which is a concentration of the test compound being required to inhibit the platelet aggregation reaction by 50%.
The compounds of Examples 18 to 70 were tested in the same manner as in Example 17.
The compounds of Examples 72 to 116 were tested in the same manner as in Example 17.

[2] = tested on: platelet aggregation; assay: Platelet aggregation inhibitory activity (ex vivo) after oral administration; assay type: in vivo; details: Cavia porcellus, guinea pig, oral 0.1 mg/kg, ADP 10 μg/ml
Procedure: A canula for collecting blood was inserted into the left common carotid artery of a guinea pig which was anesthetized with pentobarbital (30 mg/kg, i.p.). The blood (1 ml) was taken with a syringe containing 1/10 volume of 3.8% sodium citrate (Kettin-citrate, manufactured by Kokusai Shiyaku Ltd.), and the platelet aggregation ability thereof was measured (as a value before administration). Then, a test compound was orally administered to the guinea pig at a dose of 0.1 mg/kg in a volume of 5 ml/kg, and the blood was collected periodically likewise at 0.5, 1, 2, 4 and 6 hours after the administration of the test compound, and the platelet aggregation ability thereof was measured.
The determination of the platelet aggregation ability was carried out by turbidimetry using a Hematracer (Niko Bioscience) as follows. That is, the blood was centrifuged at 4500 rpm at room temperature for 10 seconds, and the supernatant was considered as platelet rich plasma (PRP), and the precipitate was centrifuged at 11000 rpm for two minutes and its supernatant was considered as platelet poor plasma (PPP), and the photo-transmittance of the PRP and the PPP was adjusted to 0%, and 100%, respectively. A cubet containing PRP (200 μl) was inserted to a measurement well, and […] at 1000 rpm at 37° C. for two minutes, and thereto was added a platelet aggregator; ADP (adenosine diphosphate, Sigma Ltd., 20 μl, final concentration; 10 μg/ml), and the maximum aggregation rate was measured. From the maximum aggregation rate before the administration of the test compound (MAR control) and the maximum aggregation rate after the administration of the test compound (MAR sample), the platelet aggregation inhibitory rate of each test compound was estimated according to the following equation.
Inhibitory rate (%)=(1-(MAR sample/MAR control))×100
The periodical change in the platelet aggregation inhibitory rate of each test compound at a dose of 0.1 mg/kg of oral administration is shown in Table 5.

[3] = tested on: human vitronectin; assay: Binding assay of platelet to adhesive protein: vitronectin (receptor binding inhibition); details: Table 4; fixed activated human platelets, 37° C., 60 minutes; read-out: receptor binding inhibition (IC50), Bitronectin
Procedure: (§1) The blood was taken out from the elbow vein of a normal volunteer, and mixed with 1/10 volume of 3.8% sodium citrate. The blood was centrifuged at 1,000 rpm (150 g) for 10 minutes, and the supernatant is collected as a platelet rich plasma (PRP). The precipitates are centrifuged at 11,000 rpm (6000 g) for two minutes, and the supernatant is collected as a platelet poor plasma (PPP). To PRP is added prostaglandin I2 (PGl2) at a final concentration of 50 ng/ml, and the mixture was centrifuged at 11000 rpm for two minutes to give human platelet. The platelet was activated by washing with 3.8 mM HEPES-buffer (pH 7.4, Tyrode-HEPES buffer) containing 0.14 M sodium chloride, 2.7 mM potassium chloride, 3.7 mM sodium dihydrogen phosphate, 0.98 mM magnesium chloride, 1 mg/ml glucose, 50 ng/ml PGl2 and 0.35% bovine serum albumin (BSA), adding thereto 5 μM epinephrine, and 30 μM ADP (adenosine diphosphate), followed by being allowed to stand at room temperature for five minutes. To the activated platelet was added 0.05% p-formaldehyde, and the mixture was allowed to stand at room temperature for 30 minutes to give the fixed platelet, which was suspended in Tyrode-HEPES buffer to give a platelet suspension of a concentration of 2×10^8 ml^-1.
(§2) Human fibrinogen from which fibronectin was previously removed by passing through gelatin-cepharose, human fibronectin or human vitronectin was diluted with 0.1 M aqueous sodium hydrogen carbonate solution to a concentration of 5 μg/ml, and the protein solution is put into a 96-well microplate at a volume of 200 μl/well. The microplate was allowed to stand at 4° C. overnight. The plate was washed with phosphate buffered saline (PBS), and subjected to blocking with 3% BSA at 37° C. for one hour. To the plate were added a platelet suspension (final concentration, 10^8 ml^-1) and a test compound of various concentrations (total volume, 200 μl/well), and the plate was incubated at 37° C. for 60 minutes. The plate was treated with 1000-fold diluted enzyme (HRP)-labelled anti-mouse IgG polyclonal antibody at 37° C. for 60 minutes, and thereto was added HRP chromogenic substrate (0.1 M phosphate buffer containing 0.4 mg/ml O-phenylenediamine,0.01% hydrogen peroxide, 0.1 M citric acid, pH 5), and reacted at room temperature for 15 minutes. The reaction was terminated by adding thereto 4.5 M sulfuric acid at a volume of 25 μl/well, and the absorbance at 490 nm was measured.

[4] = molecular target: T1, human fibrinogen (Homo sapiens, UniProt P05106+P08514); assay: Binding assay of platelet to adhesive protein: fibrinogen (receptor binding inhibition); details: Table 4; fixed activated human platelets, 37° C., 60 minutes
T1 construct: centrifuged at 11000 rpm for two minutes to give human platelet; from tissue
Procedure: as §1, §2

[5] = tested on: human fibronectin; assay: Binding assay of platelet to adhesive protein: fibronectin (receptor binding inhibition); details: Table 4; fixed activated human platelets, 37° C., 60 minutes
Procedure: as §1, §2

[6] = Homo sapiens, Table 3, same manner as Example 17
[7] = 0.5 hr, read-out: platelet aggregation inhibitory rate (%), 0.5 hr
[8] = 1 hr, read-out: platelet aggregation inhibitory rate (%), 1 hr
[9] = 2 hrs, read-out: platelet aggregation inhibitory rate (%), 2 hrs
[10] = 4 hrs, read-out: platelet aggregation inhibitory rate (%), 4 hrs
[11] = 6 hrs, read-out: platelet aggregation inhibitory rate (%), 6 hrs
[12] = Homo sapiens, Table 2, same manner as Example 17

T1 sequence (P08514 32-887 limits assumed): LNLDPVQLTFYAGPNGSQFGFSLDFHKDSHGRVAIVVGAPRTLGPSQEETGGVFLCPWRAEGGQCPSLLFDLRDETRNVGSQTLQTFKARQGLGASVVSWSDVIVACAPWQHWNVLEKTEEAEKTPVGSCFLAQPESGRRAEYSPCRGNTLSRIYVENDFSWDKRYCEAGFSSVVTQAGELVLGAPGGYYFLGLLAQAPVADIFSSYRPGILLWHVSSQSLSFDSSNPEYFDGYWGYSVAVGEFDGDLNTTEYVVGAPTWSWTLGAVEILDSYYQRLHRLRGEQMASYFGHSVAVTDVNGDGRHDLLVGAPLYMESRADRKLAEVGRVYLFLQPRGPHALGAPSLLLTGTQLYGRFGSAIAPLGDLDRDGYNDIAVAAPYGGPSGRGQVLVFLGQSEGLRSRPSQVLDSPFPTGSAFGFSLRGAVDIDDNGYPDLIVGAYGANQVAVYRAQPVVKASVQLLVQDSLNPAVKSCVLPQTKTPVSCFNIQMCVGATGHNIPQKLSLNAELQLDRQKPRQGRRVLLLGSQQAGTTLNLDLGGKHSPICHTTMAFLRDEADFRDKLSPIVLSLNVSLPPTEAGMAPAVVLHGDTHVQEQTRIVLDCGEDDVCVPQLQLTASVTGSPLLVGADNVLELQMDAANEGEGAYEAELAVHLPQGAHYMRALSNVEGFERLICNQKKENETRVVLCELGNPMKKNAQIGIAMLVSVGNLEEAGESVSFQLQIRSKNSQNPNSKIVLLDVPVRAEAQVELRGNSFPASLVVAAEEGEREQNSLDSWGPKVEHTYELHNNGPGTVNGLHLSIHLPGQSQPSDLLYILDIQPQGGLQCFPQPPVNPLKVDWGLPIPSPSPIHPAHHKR
T1 sequence (P08514 891-1039 limits assumed): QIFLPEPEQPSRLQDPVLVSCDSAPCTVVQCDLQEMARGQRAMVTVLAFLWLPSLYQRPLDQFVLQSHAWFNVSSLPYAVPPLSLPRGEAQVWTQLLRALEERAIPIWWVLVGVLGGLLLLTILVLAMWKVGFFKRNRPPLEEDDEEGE
T1 sequence (P05106 27-788): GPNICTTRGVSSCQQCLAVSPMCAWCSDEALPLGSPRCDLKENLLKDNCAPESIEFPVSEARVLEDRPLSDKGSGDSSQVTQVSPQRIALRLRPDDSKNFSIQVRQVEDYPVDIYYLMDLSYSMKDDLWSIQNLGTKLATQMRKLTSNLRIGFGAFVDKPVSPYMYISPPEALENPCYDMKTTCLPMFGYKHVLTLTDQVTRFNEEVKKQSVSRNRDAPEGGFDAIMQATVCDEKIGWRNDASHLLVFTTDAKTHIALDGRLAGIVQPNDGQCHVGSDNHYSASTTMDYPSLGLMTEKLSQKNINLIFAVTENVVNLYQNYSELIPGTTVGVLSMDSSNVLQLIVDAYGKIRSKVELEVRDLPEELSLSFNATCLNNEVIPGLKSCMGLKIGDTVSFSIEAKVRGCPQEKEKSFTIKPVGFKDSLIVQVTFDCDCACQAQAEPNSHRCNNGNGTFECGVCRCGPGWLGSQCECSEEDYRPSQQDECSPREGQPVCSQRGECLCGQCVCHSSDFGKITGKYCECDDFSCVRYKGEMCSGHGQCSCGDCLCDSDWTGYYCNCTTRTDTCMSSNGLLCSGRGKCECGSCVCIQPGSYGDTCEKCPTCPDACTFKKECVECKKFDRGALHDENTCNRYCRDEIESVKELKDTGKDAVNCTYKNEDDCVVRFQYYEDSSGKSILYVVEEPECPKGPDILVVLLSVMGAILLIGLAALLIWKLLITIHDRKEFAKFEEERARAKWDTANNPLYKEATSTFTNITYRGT

Row | IC50 [1, 6] [µM] | IC50 [3] [µM] | IC50 [4] [µM] | IC50 [5] [µM] | IC50 [1, 12] [µM] | IC50 ([1]; Table 1, human PRP, ADP 3 μg/ml, 37° C.) [µM] | SMILES | inhibition in vivo at 0.1 mg/kg [2, 7] [%] | inhibition in vivo at 0.1 mg/kg [2, 8] [%] | inhibition in vivo at 0.1 mg/kg [2, 9] [%] | inhibition in vivo at 0.1 mg/kg [2, 10] [%] | inhibition in vivo at 0.1 mg/kg [2, 11] [%]
1 | 0.017 | – | – | – | – | – | CCNC(=N)c1ccc(C(=O)NCCC(=O)NC[C@H](NS(=O)(=O)c2ccccc2)C(=O)O)cc1 [Example 99, (2S)-2-benzenesulfonylamino-3-(3-(4-(N-ethylamidino)benzoylamino)propanoylamino)propanoic Acid] | 100 | 100 | 100 | 100 | 100
2 | – | 0.63 | 0.0084 | 0.033 | – | – | N=C(N)c1ccc(C(=O)N2CCCC(C(=O)NC[C@H](NS(=O)(=O)c3ccccc3)C(=O)O)C2)cc1 (stereo partly drawn) [Example 95, (2S)-3-((1-(4-amidinobenzoyl)-3-piperidyl)carbonylamino)-2-benzenesulfonylaminopropanoic Acid] | 49 | 49 | 31 | 12 | 18
3 | 0.028 | – | – | – | – | – | CN(C)C(=N)c1ccc(C(=O)NCCC(=O)NC[C@H](NS(=O)(=O)c2ccccc2)C(=O)O)cc1 [Example 100, (2S)-2-benzenesulfonylamino-3-(3-(4-(N,N-dimethylamidino)benzoylamino)propanoylamino)propanoic Acid] | 100 | 100 | 100 | 100 | 100
4 | 0.057 | – | – | – | – | – | CNC(=N)c1ccc(C(=O)NCCC(=O)NC[C@H](NS(=O)(=O)c2ccccc2)C(=O)O)cc1 [Example 98, (2S)-2-benzenesulfonylamino-3-(3-(4-(N-methylamidino)benzoylamino)propanoylamino)propanoic Acid] | 94 | 100 | 100 | 100 | 100
5 | 0.103 | – | – | – | – | – | CCc1ccc(S(=O)(=O)N[C@@H](CNC(=O)CCNC(=O)c2ccc(C(=N)N)cc2)C(=O)OCOC(=O)C(C)(C)C)cc1 [Example 116, (2S)-3-(3-(4-amidinobenzoylamino)propanoylamino)-2-(4-ethyl)benzenesulfonylaminopropanoic Acid Pivaloyloxymethyl Ester] | – | – | – | – | –

Further lines, the molecule ahead of its results:

Row | SMILES | IC50 [1, 6] [µM] | IC50 [3] [µM] | IC50 [4] [µM] | IC50 [5] [µM] | IC50 [1, 12] [µM] | IC50 ([1]; Table 1, human PRP, ADP 3 μg/ml, 37° C.) [µM] | inhibition in vivo at 0.1 mg/kg [2, 7] [%] | inhibition in vivo at 0.1 mg/kg [2, 8] [%] | inhibition in vivo at 0.1 mg/kg [2, 9] [%] | inhibition in vivo at 0.1 mg/kg [2, 10] [%] | inhibition in vivo at 0.1 mg/kg [2, 11] [%]
6 | Cc1cc(C)c(S(=O)(=O)N[C@@H](CNC(=O)CCCCc2ccc(C(=N)N)cc2)C(=O)O)c(C)c1 [Example 87, (2S)-3-(5-(4-amidinophenyl)pentanoylamino)-2-(2,4,6-trimethyl)benzenesulfonylaminopropanoic Acid] | 0.025 | 2.7 | 0.012 | 0.21 | – | – | 100 | 100 | 100 | 100 | 80
7 | Cc1cc(C)c(S(=O)(=O)N[C@@H](CNC(=O)CCCOc2ccc(C(=N)N)cc2)C(=O)O)c(C)c1 [Example 60, (2S)-3-(4-(4-amidinophenoxy)butanoylamino)-2-(2,4,6-trimethyl)benzenesulfonylaminopropanic Acid] | – | 1.1 | 0.0015 | 0.094 | 0.031 | – | – | – | – | – | –
8 | N=C(N)c1ccc(OCCCC(=O)NC[C@H](NS(=O)(=O)c2ccccc2)C(=O)O)cc1 [Example 58, (2S)-3-(4-(4-amidinophenoxy)butanoylamino)-2-benzenesulfonylaminopropanoicAcid] | – | 8 | 0.024 | 0.61 | 0.096 | – | – | – | – | – | –
9 | N=C(N)c1ccc(OCCCC(=O)NC[C@H](NS(=O)(=O)c2ccccc2[N+](=O)[O-])C(=O)O)cc1 [Example 59] | – | 3.3 | 0.012 | 0.61 | 0.034 | – | – | – | – | – | –
10 | COc1ccc(S(=O)(=O)N[C@@H](CNC(=O)Cc2ccc(-c3ccc(C(=N)N)cc3)cc2)C(=O)O)cc1 [Example 68, (2S)-3-(2-(4'-amidino-4-biphenylyl)ethanoylamino)-2-(4-methoxy)benzenesulfonylaminopropanoic Acid] | – | 2.7 | 0.012 | 0.099 | 0.043 | – | – | – | – | – | –
11 | COc1ccc(S(=O)(=O)N[C@@H](CNC(=O)CCCOc2ccc(C(=N)N)cc2)C(=O)O)cc1 [Example 57, (2S)-3-(4-(4-amidinophenoxy)butanoylamino)-2-(4-methoxy)benzenesulfonylaminopropanoic Acid] | – | 7.5 | 0.0071 | 1.2 | 0.018 | – | – | – | – | – | –
12 | COc1cccc2c(S(=O)(=O)N[C@@H](CNC(=O)CCNC(=O)CCC3CCNCC3)C(=O)O)cccc12 [Example 72, (2S)-2-(5-methoxy-1-naphthalene)sulfonylamino-3-(3-(3-(4-piperidyl)propanoylamino)propanoylamino)propanoic Acid] | 0.052 | – | – | – | – | – | – | – | – | – | –
13 | N=C(N)c1ccc(CCCCC(=O)NC[C@H](NS(=O)(=O)c2ccccc2)C(=O)O)cc1 [Example 67] | – | – | – | – | 0.032 | – | 88 | 71 | 69 | 31 | 10
14 | O=C(CCC1CCNCC1)NCCC(=O)NC[C@H](NS(=O)(=O)c1cccc([N+](=O)[O-])c1)C(=O)O [Example 31, (2S)-2-(3-nitro)benzenesulfonylamino-3-(3-(3-(4-piperidyl)propanoylamino)propanoylamino)propanoic Acid] | – | – | – | – | 0.142 | – | – | – | – | – | –
15 | CCCCS(=O)(=O)N[C@@H](CNC(=O)CNC(=O)CCCC1CCNCC1)C(=O)O [Example 5, (2S)-2-butanesulfonylamino-3-(N-(4-(4-piperidyl)butanoyl)glycylamino)propanoic Acid] | – | – | – | – | – | 2.99 | – | – | – | – | –
